Source: patent publication US20260373233A1, “ISLET AMYLOID POLYPEPTIDE ISOFORMS AND PEPTIDES AND METHODS OF USE” (The United States of America, as represented by the …, priority 2022, published 2026)
Peptide text beside a SMILES is read from it.

Tests used:
IAPP37 = molecular target: T1, IAPP37 (Homo sapiens, UniProt P10997); test: Thioflavin T (ThT) IAPP37 fibrillation assay; assay type: biochemical; conditions: 37 °C; for IAPP aggregation dynamics (AUC of ThT fluorescence) with inhibitor, % of IAPP37 aggregation: linear range of 90-160 min, 50 μM IAPP37 with 50 μM inhibitory peptide, p=0.003
T1 construct: ThT fibrillation assay
T1 sequence (P10997 34-70): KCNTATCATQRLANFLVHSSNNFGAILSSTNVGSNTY
Method: (§1) Thioflavin T in vitro assay for IAPP and Ab amyloid formation: Thioflavin T (ThT) was from Millipore-Sigma (Cat #T3516, Rockville, MD). […] Black 96 well microplates (Chimney Well) were from Greiner Bio-One (Frickenhausen, Germany). C-terminal amidated IAPP25 and DNSP11 peptides were synthesized by GeneMed Synthesis Inc (San Antonio, TX). […] The final concentration […] 1% DMSO and 25 μM ThT in Component A buffer (AnaSpec Manual of SensoLyte Thioflavin T Aggregation Kit, Cat #AS-72214).
Statistical data analysis: GraphPad Prism v9 software was used for statistical analysis of RT-qPCR and SRM data and MetaboAnalyst v5.0 (metaboanalyst.ca/) was used for partial least squares-discriminant analysis (PLS-DA). P<0.05 was considered significant and data were represented as means±SEM. The normalized expression values of IAPP isoforms in TaqMan fold changes and ddPCR IAPP/GAPDH droplets, ELISA, and SRM quantitative values were analyzed with unpaired student t-test, Pearson correlation coefficient matrix. All statistical procedures for SRM biomarker discovery were carried out by using GraphPad Prism v9 software and MetaboAnalyst 5.0. Biomarker accuracies were calculated by area under the receiver operating characteristic curve (AUROC). For ThT amyloid dye assay, area under a curve (AUC) was calculated using the trapezoidal rule and the data were analyzed using one-way ANOVA with Tukey's multiple comparison correction. The ratio of means (±SEM) was calculated by propagation of error formula.
(§2) FIG. 10A is a representative experiment of three replicates showing IAPP37 aggregation dynamics with lag time of 90 min and inhibition by IAPP25 (derived from IAPP-γ) and DNSP11. […] ThT binding fluorescent intensity (F.I.) was transformed to area under curve (AUC) using the trapezoidal rule and the inhibitions were analyzed by one-way ANOVA with Tukey's multi-test correction.

Aβ42 = molecular target: T2, Aβ42 (Homo sapiens, UniProt P05067); test: Thioflavin T (ThT) Aβ42 fibrillation assay; assay type: biochemical; conditions: linear range of 70-120 min; 50 μM Aβ42 with 50 μM inhibitory peptide; 37 °C; p<0.0001
T2 construct: ThT fibrillation assay
Method: Thioflavin T in vitro assay for IAPP and Ab amyloid formation: Thioflavin T (ThT) was from Millipore-Sigma (Cat #T3516, Rockville, MD). […] Black 96 well microplates (Chimney Well) were from Greiner Bio-One (Frickenhausen, Germany). […] The final concentration the monomeric peptides was 1% DMSO and 25 μM ThT in Component A buffer (AnaSpec Manual of SensoLyte Thioflavin T Aggregation Kit, Cat #AS-72214).
P<0.05 was considered significant and data were represented as means±SEM. […] For ThT amyloid dye assay, area under a curve (AUC) was calculated using the trapezoidal rule and the data were analyzed using one-way ANOVA with Tukey's multiple comparison correction. The ratio of means (±SEM) was calculated by propagation of error formula.

[1] = ThT amyloid reporter binding assay of peptide alone
Method: as §1, §2

dopaminergic neurons = conditions: animal models of Parkinson's disease; amidated DNSP11; cited from earlier work

T2 sequence (P05067 672-713): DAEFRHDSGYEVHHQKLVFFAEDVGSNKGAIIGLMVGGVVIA

Q: Which “IAPP aggregation dynamics (AUC of ThT fluorescence) with inhibitor, % of IAPP37 aggregation” value (IAPP37) does the source give for `CC(C)C[C@H](NC(=O)[C@H](CO)NC(=O)[C@H](CCCNC(=N)N)NC(=O)[C@H](CC(=O)O)NC(=O)[C@H](CCC(=O)O)NC(=O)[C@H](C)NC(=O)[C@@H]1CCCN1C(=O)[C@H](C)NC(=O)[C@H](CCC(=O)O)NC(=O)[C@@H]1CCCN1C(=O)[C@@H]1CCCN1)C(N)=O` [DNSP11] (H-PPEAPAEDRSL-NH2) here?
A: 24.1%

Q: What about the “Aβ aggregation dynamics (AUC of ThT fluorescence) with inhibitor, % of Aβ42 aggregation” value (Aβ42) of the same compound?
A: 62.9%

Q: What about the “binding to ThT amyloid reporter” value [1] of the same compound?
A: did not bind

Q: And the “protection of dopaminergic neurons” value (dopaminergic neurons)?
A: protective to dopaminergic neurons

Q: Which results are given for `CC[C@H](C)[C@H](NC(=O)[C@H](CCC(N)=O)NC(=O)[C@H](Cc1c[nH]c2ccccc12)NC(=O)[C@H](C)NC(=O)[C@H](CO)NC(=O)[C@H](CCCNC(=N)N)NC(=O)[C@H](CCC(N)=O)NC(=O)[C@@H](NC(=O)[C@H](Cc1c[nH]cn1)NC(=O)[C@@H]1CCCN1C(=O)[C@H](CC(C)C)NC(=O)[C@@H](NC(=O)[C@H](C)NC(=O)[C@H](CC(N)=O)NC(=O)CNC(=O)[C@H](CO)NC(=O)[C@H](CCCCN)NC(=O)[C@H](Cc1c[nH]c2ccccc12)NC(=O)[C@H](CCCNC(=N)N)NC(=O)[C@@H](NC(=O)[C@@H](NC(=O)[C@H](CCCCN)NC(=O)[C@H](CO)NC(=O)[C@@H](N)CCCCN)C(C)C)[C@@H](C)CC)[C@@H](C)O)C(C)C)C(=O)N[C@@H](Cc1ccccc1)C(N)=O` [IAPP25] (H-KSKVIRWKSGNATLPHVQRSAWQIF-NH2)?
A: IAPP aggregation dynamics (AUC of ThT fluorescence) with inhibitor, % of IAPP37 aggregation (IAPP37): 25.0%; Aβ aggregation dynamics (AUC of ThT fluorescence) with inhibitor, % of Aβ42 aggregation (Aβ42): 50.6%; binding to ThT amyloid reporter [1]: did not bind

Q: With “KCNTATCATQRLANFLVHSSNNFGAILSSTNVGSNTY [IAPP37, mature human IAPP, 37-AA peptide (AnaSpec Cat #AS-60254-1), reference compound]” as the compound, how does the “lag time of IAPP37 aggregation” value (IAPP37; IAPP37, representative experiment of three replicates) read?
A: 90 min
